In US20090082203A1, “INSECTICIDAL BIS(SUBSTITUTED PHENYL)-1-{[4-(SATURATED HETEROCYCLYL-SUBSTITUTED)PHENYLMETHYL]- (4-PIPERIDYL)}METHANE DERIVATIVES” (priority 2004, published 2009):

Test system: tobacco budworm (Heliothis virescens [Fabricius])
Experiment: surface-treated diet test against tobacco budworm
Type: in vivo
Conditions: 0.25 millimolar on the surface of the diet, second instar larvae, five-day exposure; for Percent Mortality: compared to the total number of insects infested; for Percent Growth Inhibition: inhibition of insect weight relative to untreated controls
Description: Candidate insecticides were evaluated for activity against the tobacco budworm (Heliothis virescens [Fabricius]) in a surface-treated diet test.
In this test one mL of molten (65-70° C.) wheat germ-based artificial diet was pipetted into each well of a four by six (24 well) multi-well plate (ID# 430345-15.5 mm dia.×17.6 mm deep; Corning Costar Corp., One Alewife Center, Cambridge, Mass. 02140). The diet was allowed to cool to ambient temperature before treatment with candidate insecticide.
For a determination of insecticidal activity, solutions of the candidate insecticides were prepared for testing using a Packard 204DT Multiprobe® Robotic System (Packard Instrument Company, 800 Research Parkway, Meriden, Conn. 06450), in which the robot first diluted a standard 50 millimolar DMSO solution of candidate insecticide with a 1:1 water/acetone solution (V/V) in a ratio of 1:7 stock solution to water/acetone. The robot subsequently pipetted 40 microliters of the so-prepared solution onto the surface of the diet in each of three wells in the 24 multi-well plate. The process was repeated with solutions of seven other candidate insecticides. Once treated, the contents of the multi-well plate were allowed to dry, leaving 0.25 millimoles of candidate insecticide on the surface of the diet, or a concentration of 0.25 millimolar. Appropriate untreated controls containing only DMSO on the diet surface were also included in this test.
For evaluations of the insecticidal activity of a candidate insecticide at varying rates of application, the test was established as described above using sub-multiples of the standard 50 millimolar DMSO solution of candidate insecticide. For example, the standard 50 millimolar solution was diluted by the robot with DMSO to give 5, 0.5, 0.05, 0.005, 0.0005 millimolar, or more dilute solutions of the candidate insecticide. In these evaluations there were six replicates of each rate of application placed on the surface of the diet in the 24 multi-well plate, for a total of four rates of application of candidate insecticide in each plate.
In each well of the test plate was placed one second instar tobacco budworm larvae, each weighing approximately five milligrams. After the larvae were placed in each well, the plate was sealed with clear polyfilm adhesive tape. The tape over each well was perforated to ensure an adequate air supply. The plates were then held in a growth chamber at 25° C. and 60% relative humidity for five days (light 14 hours/day).
After the five-day exposure period insecticidal activity for each rate of application of candidate insecticide was assessed as percent inhibition of insect weight relative to the weight of insects from untreated controls, and percent mortality when compared to the total number of insects infested.
The test compounds of formula I are identified by numbers that correspond to those in Table 1.

Row | SMILES | Percent Mortality [%] | Percent Growth Inhibition [%]
1 | [O-][N+]1(Cc2ccc(C3OCCC(c4ccccc4)O3)cc2)CCC(C(O)(c2ccc(OC(F)(F)F)cc2)c2ccc(OC(F)(F)F)cc2)CC1 (stereo not shown) [Compound 79] | 100 | 100
2 | OC(c1ccc(OC(F)(F)F)cc1)(c1ccc(OC(F)(F)F)cc1)C1CCN(Cc2ccc(C3(c4ccoc4)OCCO3)cc2)CC1 [Compound 99] | 100 | 100
3 | OC(c1ccc(OC(F)(F)F)cc1)(c1ccc(OC(F)(F)F)cc1)C1CCN(Cc2ccc(C3(Cc4ccccc4)OCCO3)cc2)CC1 [Compound 66] | 67 | 100
4 | CC1COC(c2ccc(C[N+]3([O-])CCC(C(O)(c4ccc(Cl)c(Cl)c4)c4ccc(Cl)c(Cl)c4)CC3)cc2)O1 (stereo not shown) [Compound 177] | 100 | 100
5 | CC1COC(c2ccc(CN3CCC(C(O)(c4ccc(Cl)c(Cl)c4)c4ccc(Cl)c(Cl)c4)CC3)cc2)O1 (stereo not shown) [Compound 176] | 100 | 100
6 | OC(c1ccc(OC(F)(F)F)cc1)(c1ccc(OC(F)(F)F)cc1)C1CCN(Cc2ccc(C3(c4ccccc4)OCCO3)cc2)CC1 [Compound 57] | 100 | 100
7 | [O-][N+]1(Cc2ccc(C3O[C@H]4CCC[C@H]4O3)cc2)CCC(C(O)(c2ccc(OC(F)(F)F)cc2)c2ccc(OC(F)(F)F)cc2)CC1 (stereo partly shown) [Compound 123] | 100 | 100
8 | CC(C)(C)C1COC(c2ccc(CN3CCC(C(O)(c4ccc(OC(F)(F)F)cc4)c4ccc(OC(F)(F)F)cc4)CC3)cc2)O1 (stereo not shown) [Compound 50] | 100 | 100
9 | CC1COC(c2ccc(C[N+]3([O-])CCC(C(O)(c4ccc(OC(F)(F)F)cc4)c4ccc(OC(F)(F)F)cc4)CC3)cc2F)O1 (stereo not shown) [Compound 180] | 100 | 100
10 | CC1(C)COC(c2ccc(C[N+]3([O-])CCC(C(O)(c4ccc(OC(F)(F)F)cc4)c4ccc(OC(F)(F)F)cc4)CC3)cc2)O1 (stereo not shown) [Compound 112] | 100 | 100
11 | OC(c1ccc(OC(F)(F)F)cc1)(c1ccc(OC(F)(F)F)cc1)C1CCN(Cc2ccc(C3OCCS3)cc2)CC1 (stereo not shown) [Compound 17] | 100 | 100
12 | C[C@H]1OC(c2ccc(C[N+]3([O-])CCC(C(O)(c4ccc(OC(F)(F)F)cc4)c4ccc(OC(F)(F)F)cc4)CC3)cc2)O[C@@H]1C (relative stereo) [Compound 124] | 100 | 100
13 | OC(c1ccc(OC(F)(F)F)cc1)(c1ccc(OC(F)(F)F)cc1)C1CCN(Cc2ccc(CC3OCCO3)cc2)CC1 [Compound 183] | 100 | 100
14 | OC(c1ccc(OC(F)(F)F)cc1)(c1ccc(OC(F)(F)F)cc1)C1CCN(Cc2ccc(C3OC4CCCCC4O3)cc2)CC1 (stereo not shown) [Compound 127] | 100 | 100
15 | NC1(CO)COC(c2ccc(CN3CCC(C(O)(c4ccc(OC(F)(F)F)cc4)c4ccc(OC(F)(F)F)cc4)CC3)cc2)OC1 (stereo not shown) [Compound 107] | 100 | 100
16 | CC1(C)COC(c2ccc(CN3CCC(C(O)(c4ccc(OC(F)(F)F)cc4)c4ccc(OC(F)(F)F)cc4)CC3)cc2)O1 (stereo not shown) [Compound 111] | 100 | 100
17 | CN(C)C(=O)N1CCSC1c1ccc(CN2CCC(C(O)(c3ccc(OC(F)(F)F)cc3)c3ccc(OC(F)(F)F)cc3)CC2)cc1 (stereo not shown) [Compound 73] | 100 | 100
18 | CN1CCN(C)C1c1ccc(CN2CCC(C(O)(c3ccc(OC(F)(F)F)cc3)c3ccc(OC(F)(F)F)cc3)CC2)cc1 [Compound 25] | 100 | 100

Row | SMILES | Percent Mortality [%] | Percent Growth Inhibition [%]
19 | CC1(c2ccc(CN3CCC(C(O)(c4ccc(OC(F)(F)F)cc4)c4ccc(OC(F)(F)F)cc4)CC3)cc2)OCCO1 [Compound 8] | 100 | 100
20 | CC1(C)OCC(COc2ccc(CN3CCC(C(O)(c4ccc(OC(F)(F)F)cc4)c4ccc(OC(F)(F)F)cc4)CC3)cc2)O1 (stereo not shown) [Compound 189, bis[4-(trifluoromethoxy)-phenyl][1-({4-[(2,2-dimethyl(1,3-dioxolan-4-yl))methoxy]phenyl}methyl)(4-piperidyl)]methan-1-ol] | 100 | 100
21 | CC1COC(c2ccc(CN3CCC(C(O)(c4ccc(OC(F)(F)F)cc4)c4ccc(OC(F)(F)F)cc4)CC3)cc2)O1 (stereo not shown) [Compound 3] | 100 | 100
22 | CCC1COC(c2ccc(C[N+]3([O-])CCC(C(O)(c4ccc(OC(F)(F)F)cc4)c4ccc(OC(F)(F)F)cc4)CC3)cc2)O1 (stereo not shown) [Compound 62] | 100 | 100
23 | CC(=O)N1CCSC1c1ccc(CN2CCC(C(O)(c3ccc(OC(F)(F)F)cc3)c3ccc(OC(F)(F)F)cc3)CC2)cc1 (stereo not shown) [Compound 71] | 33 | 100
24 | [O-][N+]1(Cc2ccc(C3OCC4OC4CO3)cc2)CCC(C(O)(c2ccc(OC(F)(F)F)cc2)c2ccc(OC(F)(F)F)cc2)CC1 (stereo not shown) [Compound 105] | 100 | 100
25 | CCCC1COC(c2ccc(CN3CCC(C(O)(c4ccc(OC(F)(F)F)cc4)c4ccc(OC(F)(F)F)cc4)CC3)cc2)O1 (stereo not shown) [Compound 72] | 100 | 100
26 | CCCCN1CCSC1c1ccc(CN2CCC(C(O)(c3ccc(OC(F)(F)F)cc3)c3ccc(OC(F)(F)F)cc3)CC2)cc1 (stereo not shown) [Compound 59] | 100 | 100
27 | CC1(C)CCOC(c2ccc(C[N+]3([O-])CCC(C(O)(c4ccc(OC(F)(F)F)cc4)c4ccc(OC(F)(F)F)cc4)CC3)cc2)O1 (stereo not shown) [Compound 70] | 100 | 100
28 | OC(c1ccc(OC(F)(F)F)cc1)(c1ccc(OC(F)(F)F)cc1)C1CCN(Cc2ccc(C3OCC=CCO3)cc2)CC1 [Compound 58] | 100 | 100
29 | CC(C)N1CCOC1c1ccc(CN2CCC(C(O)(c3ccc(OC(F)(F)F)cc3)c3ccc(OC(F)(F)F)cc3)CC2)cc1 (stereo not shown) [Compound 97] | 50 | 100
30 | OC(c1ccc(OC(F)(F)F)cc1)(c1ccc(OC(F)(F)F)cc1)C1CCN(Cc2ccc(C3OCCO3)c(F)c2)CC1 [Compound 173] | 100 | 100
31 | OC(c1ccc(OC(F)(F)F)cc1)(c1ccc(OC(F)(F)F)cc1)C1CCN(Cc2ccc(C3OCCCO3)cc2)CC1 [Compound 4] | 100 | 100
32 | COCC1COC(c2ccc(C[N+]3([O-])CCC(C(O)(c4ccc(OC(F)(F)F)cc4)c4ccc(OC(F)(F)F)cc4)CC3)cc2)O1 (stereo not shown) [Compound 61] | 100 | 100
33 | CC1COC(c2ccc(C[N+]3([O-])CCC(C(O)(c4ccc(OC(F)(F)F)cc4)c4ccc(OC(F)(F)F)cc4)CC3)cc2)O1 (stereo not shown) [Compound 9] | 100 | 100
34 | [O-][N+]1(Cc2ccc(C3COCO3)cc2)CCC(C(O)(c2ccc(OC(F)(F)F)cc2)c2ccc(OC(F)(F)F)cc2)CC1 (stereo not shown) [Compound 104] | 100 | 100
35 | CC1COC(c2ccc(CN3CCC(C(O)(c4ccc(OC(F)(F)F)cc4)c4ccc(OC(F)(F)F)cc4)CC3)cc2F)O1 (stereo not shown) [Compound 179] | 100 | 100
